What is called solubility is how much of the substance goes into solution per volume.

Holding throughout (format): physicochemical
The nature of data set [1]: Cyclic voltammetry of C18-PTZ in 0.1 M FEC/LiTFSI. The method, then: Electrochemical characterization. CV studies were carried out to estimate the electrochemical properties of redox material (C18-PTZ) as well as the crossover of redox-active cathode material before and after long-term battery cycling. For CV measurements, 5 mM of C18-PTZ solution were prepared in 0.1 M FEC/LiTFSI electrolyte. A 3-mm glassy carbon was used as the working electrode and was polished with 50 nm Al2O3 before measurements. Platinum wire (0.5 mm) was used as the counter electrodes. A Ag/Ag^+ electrode was used as the reference electrode.
Electrochemical characterization. For the cyclic voltammetry (CV) measurements, C18-PTZ (5 mM) solutions were prepared in FEC/LiTFSI (0.1 M) electrolyte. A glassy carbon disk (CHI Instrument, 3 mm) was used as the working electrode and was polished with aqueous Al2O3(Pine Research Instrumentation, Inc., […]) before the measurements. A piece of Pt wire (Pine Research Instrumentation, Inc., thickness 0.5 mm, purity 99.99%) was used as the counter electrode while an Ag/Ag^+ (MTI Corp) electrode was used as the reference electrode. The CV measurements were performed using a Bio-Logic potentiostat. The charge/discharge performances were evaluated using Land and Bio-Logic potentiostats.

Data set [2] in a line: RDE linear sweep voltammetry of C18-PTZ in 0.1 M FEC/LiTFSI. The settings on record: 1 mM in 0.1 M FEC/LiTFSI. The procedure:
To investigate the electrochemical kinetics of C18-PTZ redox molecules, linear sweep voltammetry (LSV) was conducted using the rotating disk electrode (RDE) technique. The LSV curves of C18-PTZ were measured in electrolyte solutions containing 1.0 mM C18-PTZ in 0.1 M FEC/LiTFSI solution, and the results are presented in FIG. 68(a).
Calculation of diffusion coefficient and electron transfer rate. Linear sweep voltammetry (LSV) studies were carried out using a Pine modulated speed rotator with Biologic potentiostats. Rotating disk electrode (RDE, diameter: 5 mm), Pt wire electrode and Ag/Ag^+ electrode were used as the working, counter and reference electrodes, respectively. Before testing, the samples were purged with argon for 10 min. LSV dates were collected at different rotation rates ranging from 100 to 1600 rpm. The diffusion coefficient (Do) of electroactive materials were calculated from the Levich plot using Equation 1.
The kinetic rate constant is calculated by Equation 2.
The LSV investigations were conducted using a Pine modulated speed rotator paired with Biologic potentiostats. […] The diffusion coefficient (D) of electroactive materials was calculated from the Lévich plot using Equation 1. The kinetic rate constant is calculated by Equation 2.

Data set [3] is described as follows: Crossover study of C18-PTZ in the Design-I triphasic system under static conditions (UV-visible, CV). The settings on record: 0.5 M in FEC phase, 10-day period. An excerpt:
(§1) Selection of the anode and cathode materials. Achieving a high capacity for RFBs requires the selection of redox-active materials with high potential. In this study, Li metal was selected as the anode because of its low electrochemical potential (−3.04 V vs. a standard hydrogen electrode), high energy density, and theoretical capacity (~3,860 mAh/g). Graphite felt (GF) was selected as the cathode owing to its chemical inertness in nonaqueous electrolytes, high electrical conductivity, highly porous structure, and high specific surface area. […] The solubility properties of several redox-active catholyte compounds, including derivatives of phenothiazine, cyclopropenium, 2,2,6,6-tetramethylpiperidinyloxy (TEMPO), anthraquinone (AQ), and ferrocene, were evaluated as the three supporting electrolytes in the triphasic system (FIG. 88). […] The system was evaluated for the potential crossover of 0.5 M C18-PTZ dissolved in the FEC phase. […]
(§2) Selection of the anode and cathode materials. […] The solubility properties of several redox-active catholyte compounds, including derivatives of phenothiazine, cyclopropenium, 2,2,6,6-tetramethylpiperidinyloxy (TEMPO), anthraquinone (AQ), and ferrocene, were evaluated as the three supporting electrolytes in the triphasic system (FIG. 85). […] The system was evaluated for the potential crossover of 0.5 M C18-PTZ dissolved in the FEC phase. […]

Data set [4] in a line: Solubility of catholyte compounds in the three supporting electrolytes of the triphasic system.
Source text: as §1, §2

A short description of data set [5]: Solubility test of C18-PTZ in FEC/LiTFSI. Particulars: in FEC/LiTFSI (1.2 M). The procedure: Solubility test. […] The solution was gradually added to a vial containing known amounts of C18-PTZ. Once a clear solution was just obtained, the volume of the electrolyte was determined by an analytical pipette. The solubility of organic compounds was calculated from the ratio of the molar amount to electrolyte volume. These processes are repeated twice, and the averaged values are presented.
Solubility Test. […] The solution was incrementally added to a vial containing known quantities of C18-PTZ. The addition continued until a clear solution was achieved, at which point the volume of the electrolyte was measured using an analytical pipette. Subsequently, the solubility of the organic compounds was calculated by finding the ratio of the molar amount of C18-PTZ to the volume of the electrolyte. This entire process was repeated twice to ensure accuracy, and the averaged values of the solubility were reported as the final result.

Molecules are shown by their SMILES. Converted amounts (≈) assume the structure as drawn. “Also recorded” adds a separate entry of the source.

As for `CCCCCCCCCCCCCCCCCCN1c2ccccc2Sc2ccccc21` [C18-PTZ], in data set [1] (5 mM in 0.1 M FEC/LiTFSI), the redox couple potential came to 0.35 V vs. Ag/Ag^+. Also, the “electrochemical stability on repeated CV cycling” value in data set [1] (FEC/LiTFSI (0.1 M), 50 mV/s, 500 cycles) is given as “excellent electrochemical stability; also recorded: high electrochemical stability”. The same molecule yielded a peak potential separation in data set [1] (scan rate 50 mV/s) of 68 mV. For the same molecule, the peak potential separations in data set [1] (scan rate 50 mV/s, unit not given) is ~ 68. In addition, the “ratio of cathodic peak current (ipc) and anodic peak current (ipa)” value in data set [1] (scan rates 50 to 250 mV/s) is recorded as “approximately 1”. Besides, in data set [2], the “kinetic rate constant (k0)” value was found to be 0.00351 cm/s. Also, in data set [2] (Levich plot), the “diffusion coefficient D” value is 6.23×10^−6 cm^2/s. Moreover, in data set [3], the “crossover out of the FEC layer” value was “no significant crossover”. In data set [4] (anolyte and intermediate layers of triphasic system), the “solubility in TEGDME and NFTTS” value was “poor solubility”. Moreover, the “solubility in FEC” value in data set [4] (catholyte solvent of triphasic system) was “high solubility”. Besides, the solubility in data set [5] stood at 500 mM (≈ 226 mg/mL).

Values taken from patent publication US20260269287A1, “ALL-NONAQUEOUS MEMBRANE-FREE FLOW BATTERIES” (University of Cincinnati, priority 2023, published 2026).
